Read-outs that look alike come from different tables or passages of the source.

What all share (assay type): in vivo
For experiment [1], the system named is Pyricularia. The following applies: rice.
The test system of experiment [2] is Pyricularia oryzae. The following applies: rice, protective, evaluation 4 days after inoculation.
The subject of experiment [3] is Erysiphe graminis f.sp. hordei. Briefly: Erysiphe test (barley)/protective. The following applies: protective, application rate 50 g/ha, evaluation 7 days after inoculation. As for the experimental part: Erysiphe test (barley)/protective
Solvent: 50 parts by weight of dimethylformamide
Emulsifier: 1 part by weight of alkylaryl polyglycol ether
To produce a suitable preparation of active compound, 1 part by weight of active compound or a combination of active compound is mixed with the stated amounts of solvent and emulsifier, and the concentrate is diluted with water to the desired concentration, or a commercial formulation of active compound or active compound combination is diluted with water to the desired concentration.
To test for protective activity, young plants are sprayed with the preparation of active compound at the stated application rate.
1 day after the treatment, the plants are dusted with spores of Erysiphe graminis f.sp. hordei.
The plants are placed in a greenhouse at a temperature of about 20° C. and a relative atmospheric humidity of about 80% to promote the development of mildew pustules.
Evaluation is carried out 7 days after the inoculation. 0% means an efficacy which corresponds to that of the control, whereas an efficacy of 100% means that no infection is observed.

On to `N#Cc1ccccc1NC(=O)c1snc(Cl)c1Cl` [(I), 2′-cyano-3,4-dichloroisothiazole-5-carboxanilide], for which the Efficacy in % in experiment [1] (10 g/10 acres, b: inoculation two weeks after treatment) is on record as 12.6%; in experiment [1] (20 g/10 acres, b: inoculation two weeks after treatment), 75%. Consider `CCC1(C(=O)NC(C)c2ccc(Cl)cc2)C(C)C1(Cl)Cl` (stereo not shown) [(II), N-[1-(4-chlorophenyl)ethyl]-2,2-dichloro-1-ethyl-3-methylcyclopropane-carboxamide], for which the Efficacy in % in experiment [2] (application rate 50 g/ha) stood at 29%; in experiment [1] (100 g/10 acres, a: inoculation one week after treatment), 0%. Turning to `CC(C)(C)C(O)(CCc1ccc(Cl)cc1)Cn1cncn1` (stereo not shown) [(IV-b)], in experiment [2] (application rate 100 g/ha), the Efficacy in % was 0%. Same read-out and setting: the result for `OC(Cc1ccccc1Cl)(Cn1nc[nH]c1=S)C1(Cl)CC1` (stereo not shown) [(IV-c), Prothioconazole] reads 29%. With `CC(NC(=O)C(C#N)C(C)(C)C)c1ccc(Cl)cc1Cl` (stereo not shown) [(IX), diclocymet], the Efficacy in % in experiment [1] (10 g/10 acres, a: inoculation one week after treatment) is 37.5%; in experiment [1] (20 g/10 acres, a: inoculation one week after treatment), 83.2%; in experiment [1] (100 g/10 acres, b: inoculation two weeks after treatment), 27.8%. As for `O=C(Nc1ccccc1)N(Cc1ccc(Cl)cc1)C1CCCC1` [(V)], the Efficacy in % in experiment [3] worked out at 0%.

These data come from US8962578B2 (priority 2003, dated 2015).
